# Assay results as given in PubChem BioAssay AID2060906 (Molecular Pharmacology Branch, DTP, NCI, 2025).
# System: 485176-168-R4-J1-PDC complex spheroid growth
# Assay: Anticancer human tumor 485176-168-R4-J1-PDC patient-derived pancreatic adenocarcinoma cell line growth inhibition [RAS]
# Details: for IC50: curve of first compound; for viability, T/C: stronger effect = lower value
# Summary of the method: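 Tumour cells grown as complex spheroids with HUVEC endothelial cells and mesenchymal stem cells, treated with RAS pathway inhibitor combinations. Each agent spans half-log steps from near clinical Cmax, or 10 microM where Cmax is unknown.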
# 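Also: spheroids exposed to compounds for seven days before readout.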
# 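For viability, T/C in this document: luminescence viability expressed relative to DMSO vehicle wells set as 100%.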
compound,measurement,setting,value
C=CC(=O)N1CCN(c2nc(OCC3CCCN3C)nc3c(F)c(-c4nc(N)cc(C)c4C(F)(F)F)c(Cl)cc23)C(C)C1 (centres undefined) + CCn1c(-c2cccnc2C(C)OC)c2c3cc(ccc31)N1CCOC(CC(NC(=O)C(C(C)C)N(C)C(=O)C3(F)CCN(C(=O)C#CC(C)(C)N(C)C)CC3)C(=O)N3CCCC(N3)C(=O)OCC(C)(C)C2)C1,IC50,second compound 0.000949 µM,> 1 µM
same,IC50,second compound 0.003 µM,> 1 µM
same,IC50,second compound 0.00949 µM,> 1 µM
same,IC50,second compound 0.03 µM,> 1 µM
same,IC50,second compound 0.0949 µM,> 1 µM
same,IC50,second compound 0.3 µM,> 1 µM
same,"viability, T/C","second compound 0.000949 µM, first compound 0.00316 µM",109%
same,"viability, T/C","second compound 0.000949 µM, first compound 0.01 µM",90.2%
same,"viability, T/C","second compound 0.000949 µM, first compound 0.0316 µM",108%
same,"viability, T/C","second compound 0.000949 µM, first compound 0.1 µM",88.8%
same,"viability, T/C","second compound 0.000949 µM, first compound 0.316 µM",113%
same,"viability, T/C","second compound 0.000949 µM, first compound 1 µM",89.4%
same,"viability, T/C","second compound 0.003 µM, first compound 0.00316 µM",94.2%
same,"viability, T/C","second compound 0.003 µM, first compound 0.01 µM",94.5%
same,"viability, T/C","second compound 0.003 µM, first compound 0.0316 µM",96.2%
same,"viability, T/C","second compound 0.003 µM, first compound 0.1 µM",93.4%
same,"viability, T/C","second compound 0.003 µM, first compound 0.316 µM",115%
same,"viability, T/C","second compound 0.003 µM, first compound 1 µM",105%
same,"viability, T/C","second compound 0.00949 µM, first compound 0.00316 µM",92.2%
same,"viability, T/C","second compound 0.00949 µM, first compound 0.01 µM",93.6%
same,"viability, T/C","second compound 0.00949 µM, first compound 0.0316 µM",96.9%
same,"viability, T/C","second compound 0.00949 µM, first compound 0.1 µM",94.4%
same,"viability, T/C","second compound 0.00949 µM, first compound 0.316 µM",105%
same,"viability, T/C","second compound 0.00949 µM, first compound 1 µM",108%
same,"viability, T/C","second compound 0.03 µM, first compound 0.00316 µM",98.5%
same,"viability, T/C","second compound 0.03 µM, first compound 0.01 µM",105%
same,"viability, T/C","second compound 0.03 µM, first compound 0.0316 µM",101%
same,"viability, T/C","second compound 0.03 µM, first compound 0.1 µM",111%
same,"viability, T/C","second compound 0.03 µM, first compound 0.316 µM",117%
same,"viability, T/C","second compound 0.03 µM, first compound 1 µM",85.8%
same,"viability, T/C","second compound 0.0949 µM, first compound 0.00316 µM",88.2%
same,"viability, T/C","second compound 0.0949 µM, first compound 0.01 µM",83.7%
same,"viability, T/C","second compound 0.0949 µM, first compound 0.0316 µM",101%
same,"viability, T/C","second compound 0.0949 µM, first compound 0.1 µM",95.1%
same,"viability, T/C","second compound 0.0949 µM, first compound 0.316 µM",115%
same,"viability, T/C","second compound 0.0949 µM, first compound 1 µM",92.2%
same,"viability, T/C","second compound 0.3 µM, first compound 0.00316 µM",74.2%
same,"viability, T/C","second compound 0.3 µM, first compound 0.01 µM",74.1%
same,"viability, T/C","second compound 0.3 µM, first compound 0.0316 µM",79.6%
same,"viability, T/C","second compound 0.3 µM, first compound 0.1 µM",82%
same,"viability, T/C","second compound 0.3 µM, first compound 0.316 µM",94.4%
same,"viability, T/C","second compound 0.3 µM, first compound 1 µM",80.8%
Cc1nc(N2CCC3(CC2)COC(C)C3N)c(CO)nc1Sc1ccnc(N)c1Cl (centres undefined) + C#Cc1c(F)ccc2cc(O)cc(-c3ncc4c(N5CC6CCC(C5)N6)nc(OCC56CCCN5CC(F)C6)nc4c3F)c12,IC50,second compound 0.0316 µM,> 10 µM
same,IC50,second compound 0.1 µM,> 10 µM
same,IC50,second compound 0.316 µM,> 10 µM
same,IC50,second compound 1 µM,> 10 µM
same,IC50,second compound 3.16 µM,> 10 µM
same,IC50,second compound 10 µM,> 10 µM
same,"viability, T/C","second compound 0.0316 µM, first compound 0.0316 µM",111%
same,"viability, T/C","second compound 0.0316 µM, first compound 0.1 µM",89.3%
same,"viability, T/C","second compound 0.0316 µM, first compound 0.316 µM",79.5%
same,"viability, T/C","second compound 0.0316 µM, first compound 1 µM",82.5%
same,"viability, T/C","second compound 0.0316 µM, first compound 3.16 µM",88.5%
same,"viability, T/C","second compound 0.0316 µM, first compound 10 µM",73.4%
same,"viability, T/C","second compound 0.1 µM, first compound 0.0316 µM",91.6%
same,"viability, T/C","second compound 0.1 µM, first compound 0.1 µM",99.6%
same,"viability, T/C","second compound 0.1 µM, first compound 0.316 µM",83.4%
same,"viability, T/C","second compound 0.1 µM, first compound 1 µM",84.4%
same,"viability, T/C","second compound 0.1 µM, first compound 3.16 µM",85.6%
same,"viability, T/C","second compound 0.1 µM, first compound 10 µM",83%
same,"viability, T/C","second compound 0.316 µM, first compound 0.0316 µM",83%
same,"viability, T/C","second compound 0.316 µM, first compound 0.1 µM",85.4%
same,"viability, T/C","second compound 0.316 µM, first compound 0.316 µM",86.7%
same,"viability, T/C","second compound 0.316 µM, first compound 1 µM",70.6%
same,"viability, T/C","second compound 0.316 µM, first compound 3.16 µM",81.8%
same,"viability, T/C","second compound 0.316 µM, first compound 10 µM",77.3%
same,"viability, T/C","second compound 1 µM, first compound 0.0316 µM",85.5%
same,"viability, T/C","second compound 1 µM, first compound 0.1 µM",102%
same,"viability, T/C","second compound 1 µM, first compound 0.316 µM",71.4%
same,"viability, T/C","second compound 1 µM, first compound 1 µM",75.3%
same,"viability, T/C","second compound 1 µM, first compound 3.16 µM",77.7%
same,"viability, T/C","second compound 1 µM, first compound 10 µM",70.8%
same,"viability, T/C","second compound 3.16 µM, first compound 0.0316 µM",92.6%
same,"viability, T/C","second compound 3.16 µM, first compound 0.1 µM",98.1%
same,"viability, T/C","second compound 3.16 µM, first compound 0.316 µM",96.2%
same,"viability, T/C","second compound 3.16 µM, first compound 1 µM",75.9%
same,"viability, T/C","second compound 3.16 µM, first compound 3.16 µM",86.5%
same,"viability, T/C","second compound 3.16 µM, first compound 10 µM",64.1%
same,"viability, T/C","second compound 10 µM, first compound 0.0316 µM",80.4%
same,"viability, T/C","second compound 10 µM, first compound 0.1 µM",87.4%
same,"viability, T/C","second compound 10 µM, first compound 0.316 µM",87%
same,"viability, T/C","second compound 10 µM, first compound 1 µM",82.1%
same,"viability, T/C","second compound 10 µM, first compound 3.16 µM",80%
same,"viability, T/C","second compound 10 µM, first compound 10 µM",86.6%
